Assay results: US20200113902A1, “COMPOSITIONS AND METHODS FOR TREATING CANCERS WITH COVALENT INHIBITORS OF CYCLIN-DEPENDENT KINASE 7 (CDK7)” (Syros Pharmaceuticals, Inc., priority 2017, published 2020)

Tests used:
[1] = tested on: MCL1 protein in MDAMB453 cells; test: Western blot of BCL2 family proteins, MDAMB453; format: cell-based, human; details: 50 nM or 100 nM, 24 hours
Experimental: (§1) Cytotoxic cancer cell lines HCC70 and TOV21G, and cytostatic cancer cell lines T47D and COV318 were seeded in wells of a six-well dish at a density of 1×10^6 cells/well and allowed to adhere overnight. Cells were then treated with 50 nM of Compound 1 for 16 or 24 hours, or with DMSO (0 hours) representing a negative control. Cells were harvested and placed on ice, and resuspended in RIPA lysis buffer supplemented with protease and phosphatase inhibitors. Clarified lysates prepared with 4×LSD running buffer and boiled at 95° C. for 5 minutes. Equivalent amounts of sample (10 μg total protein) were run on a 4-12% Bis-Tris gel and transferred to a PDVF membrane for Western blotting using standard Western blotting protocols. Membranes were blocked with Licor TBS blocking buffer then probed with antibodies for BCL-XL, BCL-2, MCL1, BID, and GAPDH visualized using and Odyssey imager (FIGS. 23A and 23D).
In a similar experiment, TNBC breast cancer cell lines HCC70, MDAMB468, MDAMB453 and CAL-120 were grown as described above and treated with DMSO, 50 nM Compound 1 or 100 nM Compound 1 for 24 hours. Protein samples were prepared as described above for Western blotting using antibodies specific for the indicated proteins in FIG. 29A. […]

[2] = tested on: MCL1 protein in MV411 cells; test: Western blot, AML cell line MV411; format: cell-based; details: 50 nM
Experimental: as §1
We next explored the expression of MCL1, BCL-XL and BCL2 in four different AML cell lines. MV411, OCI-AML3 and KG1 cells were separately grown and prepared as described in Example 2 for Western blotting, using antibodies specific for BCL2 (FIG. 24A), BCL-XL, MCL-1 and tubulin as an internal control (FIG. 24B).

BR5010 xenografts = test: TNBC patient-derived xenograft BR5010, tumor volume; format: in vivo, mouse; details: 40 mg/kg or 30 mg/kg i.v. BIW
Experimental: (§2) Patient-derived xenograft (PDX) models from TNBC patients (BR5010, BR5013, BR5015, and BR5023) were established in NOD-SCID mice at Crown Bioscience (San Diego, USA). Cryo vials containing tumor cells were thawed and prepared for injection into mice. Cells were washed in PBS, counted, and resuspended in cold PBS at a concentration of 50,000-100,000 viable cells/100 ul. Cell suspensions were mixed with an equal volume of Cultrex ECM and kept on ice during transport to the vivarium. Cells were prepared for injections by withdrawing ECM-Cell mixture into a chilled slip-tip syringe fitted with a 26G 7/8 (0.5 mm×22 mm) needle. The filled syringes were kept on ice to avoid the solidification of ECM. Each mouse was inoculated subcutaneously in the right flank with 200 uL of the cell suspension. Tumor sizes were measured in two dimensions using a caliper, and the volumes were expressed in mm^3 using the formula: V=0.5 a×b^2, where a and b are the longest and shortest diameters of the tumor, respectively. Compound 1 treatment was started when the average tumor size reached 150-200 mm^3.
(§3) Compound 1 was formulated in w/v 20% Captisol (pH 4-6) and administered by i.v. twice weekly (BIW) at a final dose of 40 mg/kg or 30 mg/kg in a 10 ml/kg volume. Tumor volumes were measured twice weekly over the course of the study. […]

BR5015 xenografts = test: TNBC patient-derived xenograft BR5015, tumor volume; format: in vivo, mouse; details: 40 mg/kg or 30 mg/kg i.v. BIW
Experimental: as §2, §3

OV15612 xenograft = test: Ovarian PDX OV15612, tumor volume; format: in vivo, mouse; details: OV15612 (FGFR1 super enhancer, CCNE1 high); 40 or 30 mg/kg i.v. BIW
Experimental: as §2, with “from ovarian carcinoma” for “from TNBC”, “patients (OV5387, OV14702, OV14972, OV15398, OV15576, OV15696, OV15612, OV15631)” for “patients (BR5010, BR5013, BR5015, and BR5023)”, “in mm3” for “in mm^3”, “V=0.5 a×b^2” for “V=0.5 a×b^2,”
as §3

CN(C)C/C=C/C(=O)Nc1ccc(C(=O)N[C@@]2(C)CCC[C@@H](Nc3ncc(Cl)c(-c4c[nH]c5ccccc45)n3)C2)nc1 [Compound 1, N-((1S,3R)-3-(5-chloro-4-(1H-indol-3-yl)pyrimidin-2-ylamino)-1-methylcyclohexyl)-5-((E)-4-(dimethylamino)but-2-enamido)picolinamide]
MCL1 protein level (Western blot) [1]: downregulated
MCL1 protein level (Western blot) [2]: significant reduction in MCL1
Tumor growth vs untreated historical samples (BR5010 xenografts): consistently inhibited tumor growth
Tumor growth vs untreated historical samples (BR5015 xenografts): little inhibitory effect on tumor growth
Response to treatment (tumor growth) (OV15612 xenograft): responded
